We go through four compounds from article PMC3914206.

Assay type in all cases: binding
What all share (design): KINOMEscan: ABL1(F317L)-phosphorylated / KINOMEscan: ABL1(H396P)-nonphosphorylated / KINOMEscan: ABL1(H396P)-phosphorylated / KINOMEscan: ABL1(M351T)-phosphorylated / KINOMEscan: ABL1(T315I)-phosphorylated / KINOMEscan: ABL1-nonphosphorylated / KINOMEscan: ABL1-phosphorylated / KINOMEscan: ACVR2A / KINOMEscan: ACVR2B / KINOMEscan: ADCK3 / KINOMEscan: ADCK4 / KINOMEscan: AKT1 / KINOMEscan: AKT3 / KINOMEscan: ALK / KINOMEscan: ARK5 / KINOMEscan: AURKA / KINOMEscan: AURKC / KINOMEscan: BIKE / KINOMEscan: BMPR1A / KINOMEscan: BMPR1B / KINOMEscan: BMX / KINOMEscan: BRK / KINOMEscan: BRSK1 / KINOMEscan: BRSK2 / KINOMEscan: CAMK1 / KINOMEscan: CAMK1D / KINOMEscan: CAMK1G / KINOMEscan: CAMK2A / KINOMEscan: CAMK2B / KINOMEscan: AAK1 / KINOMEscan: CAMK2D / KINOMEscan: CAMK2G / KINOMEscan: ABL1(F317I)-nonphosphorylated / KINOMEscan: ABL1(F317I)-phosphorylated / KINOMEscan: ABL1(F317L)-nonphosphorylated: unit: % Ctrl

The target of experiment [1] is T1, panel of 442 kinases (Homo sapiens, UniProt P27037).
T1 construct: purchased KINOMEscan
T1 sequence (P27037 20-513): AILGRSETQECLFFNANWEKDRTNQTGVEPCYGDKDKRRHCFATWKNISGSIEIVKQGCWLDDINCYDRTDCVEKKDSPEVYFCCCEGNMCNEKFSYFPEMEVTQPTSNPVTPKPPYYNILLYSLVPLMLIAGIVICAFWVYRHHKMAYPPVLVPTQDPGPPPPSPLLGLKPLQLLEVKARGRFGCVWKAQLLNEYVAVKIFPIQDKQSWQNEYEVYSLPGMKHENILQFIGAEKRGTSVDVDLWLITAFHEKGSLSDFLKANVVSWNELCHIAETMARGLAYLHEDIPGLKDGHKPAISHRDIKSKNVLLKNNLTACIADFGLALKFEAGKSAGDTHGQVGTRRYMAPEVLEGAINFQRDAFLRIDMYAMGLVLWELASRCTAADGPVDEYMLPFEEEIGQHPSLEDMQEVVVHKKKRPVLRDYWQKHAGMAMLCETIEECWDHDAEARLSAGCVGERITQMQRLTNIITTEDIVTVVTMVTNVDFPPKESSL
The note with it: Compound Concentration 10 µM. The text has this: (§1) We assessed the selectivity of members of this scaffold using the KINOMEscan methodology across a near comprehensive panel of 442 kinases [[18,27]].

The target in experiment [2] is T2, panel of 442 kinases (Homo sapiens, UniProt P42679).
T2 construct: purchased KINOMEscan
T2 sequence (P42679 1-507): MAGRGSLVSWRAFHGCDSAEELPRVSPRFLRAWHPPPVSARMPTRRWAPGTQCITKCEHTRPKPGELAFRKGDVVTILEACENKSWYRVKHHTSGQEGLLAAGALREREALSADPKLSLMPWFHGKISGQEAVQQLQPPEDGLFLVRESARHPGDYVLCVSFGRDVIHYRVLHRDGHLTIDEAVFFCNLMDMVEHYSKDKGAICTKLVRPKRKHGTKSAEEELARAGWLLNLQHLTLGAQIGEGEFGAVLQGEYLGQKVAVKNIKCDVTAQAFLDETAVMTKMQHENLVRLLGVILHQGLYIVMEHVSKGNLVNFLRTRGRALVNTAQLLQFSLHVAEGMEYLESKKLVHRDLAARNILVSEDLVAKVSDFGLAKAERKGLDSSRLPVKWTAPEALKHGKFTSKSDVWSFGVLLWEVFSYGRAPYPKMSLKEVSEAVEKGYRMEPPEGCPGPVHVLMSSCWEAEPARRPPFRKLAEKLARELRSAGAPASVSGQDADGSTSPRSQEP
The note with it: Compound Concentration 10 µM.
Description: as §1

Experiment [3] deals with T3, panel of 442 kinases (Homo sapiens, UniProt Q8WU08).
T3 construct: purchased KINOMEscan
T3 sequence (Q8WU08 whole entry): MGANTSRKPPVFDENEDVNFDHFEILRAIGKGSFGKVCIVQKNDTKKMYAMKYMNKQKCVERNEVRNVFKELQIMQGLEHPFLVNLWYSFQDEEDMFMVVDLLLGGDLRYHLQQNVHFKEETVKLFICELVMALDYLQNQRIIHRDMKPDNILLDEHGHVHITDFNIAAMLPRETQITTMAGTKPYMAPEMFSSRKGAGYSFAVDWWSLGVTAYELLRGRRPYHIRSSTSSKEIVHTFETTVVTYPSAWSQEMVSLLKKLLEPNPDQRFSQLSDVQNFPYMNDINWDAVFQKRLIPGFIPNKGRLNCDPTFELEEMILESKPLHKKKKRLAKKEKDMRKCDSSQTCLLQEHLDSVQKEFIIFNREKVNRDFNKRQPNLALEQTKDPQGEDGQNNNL
The note with it: kinase YANK1; compound concentration 10 µM.
Description: as §1

Structures are written as SMILES.

On to `CCOc1cc(C(=O)N2CCC(N3CCN(C)CC3)CC2)ccc1Nc1ncc2c(n1)N(C1CCCC1)c1ccccc1C(=O)N2C` [Compound 26], for which the “KINOMEscan: ACVR2A” value in experiment [1] amounted to 95. The “KINOMEscan: CTK” value in experiment [2] was 89. For the same compound, the “% Ctrl, YANK1” value in experiment [3] stood at 100 % Ctrl.
`COc1cc(C(=O)N2CCC(N3CCN(C)CC3)CC2)ccc1Nc1ncc2c(n1)N1CCc3cccc(c31)C(=O)N2C` [Compound 24]: the “KINOMEscan: ACVR2A” value in experiment [1] is on record as 71. For the same compound, in experiment [3], the “% Ctrl, YANK1” value is given as 100 % Ctrl.
As to `COc1cc(C(=O)N2CCC(N3CCN(C)CC3)CC2)ccc1Nc1ncc2c(n1)N(C)c1ccccc1C(=O)N2C` [15 (LRRK2-IN-1)], in experiment [1], the “KINOMEscan: ACVR2A” value was determined as 100. Besides, the “KINOMEscan: CTK” value in experiment [2] is 100. Further, the “% Ctrl, YANK1” value in experiment [3] was 100 % Ctrl.
In the case of `COc1cc(C(=O)N2CCC(N3CCN(C)CC3)CC2)ccc1Nc1ncc2c(n1)N(C1CCCC1)c1ccccc1C(=O)N2C` [Compound 25, 11-cyclopentyl-2-((2-methoxy-4-(4-(4-methylpiperazin-1-yl)piperidine-1-carbonyl)phenyl)amino)-5-methyl-5H-benzo[e]pyrimido[5,4-b][1,4]diazepin-6(11H)-one], in experiment [1], the “KINOMEscan: ACVR2A” value is 93. The “KINOMEscan: CTK” value in experiment [2] amounted to 100. Besides, the “% Ctrl, YANK1” value in experiment [3] came out at 100 % Ctrl.
